{"source": "patent US11415493B2", "about": "“Detection of cells in a liquid sample” (DELTA INSTRUMENTS B.V., priority 2016, dated 2022)", "system": "bacteria in raw milk", "experiment": "IBC in 24 h old raw bulk milk, staining composition with Savinase, flow cytometer", "format": "cell-based", "conditions": "68° C., 1 minute", "description": "To verify this method with Savinase®, locally obtained raw bulk tank milk from a dairy plant was collected. […] An amount of 200 μl bacterial culture is added to a 45 ml volume of 24 h old raw bulk milk and kept at 4° C. until analyzed. The staining composition comprising GelGreenTM as the nucleic acid dye was prepared in the same way as in Example 5, except that the Alcalase® protease was replaced by 0.12 KNPU/ml Savinase® […] protease (from Novozymes). 200 μl of unheated raw milk is diluted with the 1800 μl staining composition and incubated at approximately 68° C. for 1 minute; the sample is sonicated for 5 seconds at 40 kHz in the before and after the incubation step and analyzed on the flow cytometer; the fluorescent signals from the bacteria were detected and a count per unit volume was determined. Traditional plate counts were used to obtain a bacterial reference count. As used herein, the term “traditional plate counts”, refers to Petrifilm Aerobic Count Plates (AOAC Official Method 986.33). The LOG of individual bacterial count (IBC)/ml from 24 h raw milk in the flow cytometer is 5.61, the LOG of CFU/ml petrifilm is 4.83. The LOG of IBC from 24 h raw milk spiked with E. coli LOG in the flow cytometer is 6.48. The LOG of CFU/ml petrifilm is 6.69.", "data": [{"smiles": "CN(C)c1ccc2cc3ccc(N(C)C)cc3[n+](CCCCCC(=O)NCCCOCCOCCOCCCNC(=O)CCCCC[n+]3c4cc(N(C)C)ccc4cc4ccc(N(C)C)cc43)c2c1.[I-].[I-]", "note": "[GelGreen™]", "values": [{"measurement": "LOG of IBC in the flow cytometer", "setting": "24 h raw milk spiked with E. coli", "result": 6.48}, {"measurement": "LOG of individual bacterial count (IBC)/ml in the flow cytometer", "setting": "24 h raw milk", "result": 5.61}]}]}
